What is called ED50 is the midpoint of the dose-response relation. A high value points to weaker potency.

The values below come from patent US9162975B2, “Phenyl carbamate compounds for use in alleviating or treating pain” (Bio-Pharm Solutions Co., Ltd., priority 2011, dated 2015).

For assay [1], the system named is ICR mice. Description: Hot-plate test. Type of assay: in vivo. The following applies: withdrawal latency relative to vehicle control, 150 mg/kg po, hot plate 55±1° C. As to the method:
To examine the pain relief effect of the phenyl carbamate compounds, a hot-plate test was conducted in general pain animal model referring to Current Protocols in Neuroscience; Behavioral Neuroscience Unit 8.9.
ICR mice (male, 30-35 g; Orient Bio, Korea) were habituated before test in test room for 1 hour Animals were fasted 2 hr before administration of compounds. Each of Compound 1, 2, 3, 4, 5, 63, 65, and 67 was orally administered at the dose of 150 mg/kg, 10 ul/g, bw (n=7˜10/group). All compounds were dissolved in a vehicle of 30% (v/v) PEG 400 or 20% (v/v) Tween 80. The control group was treated the vehicle without compounds.
0.5 hr after the administration of compounds, the mice were put on a hot plate pre-heated to 55±1° C. (Hu, X. et al, 2008), and then, measured as the withdrawal latency (cut-off time: 30 sec) time until the point when each mouse was taking off a paw from the plate, shaking, licking a paw or hind leg, or jumping from the plate.

For assay [2], the system named is ICR mice. Kind of assay: Writhing test (acetic acid). It is filed as in vivo. Particulars: Mus musculus, po, 1 h. The protocol: To examine the pain relief effect of the phenyl carbamate compounds, a writhing test was conducted in general pain animal model referring to Fischer, L. G. et al. (2008).
ICR mice (male, 24-28 g; Orient Bio, Korea) were habituated before test in test room for 1 hour Animals were fasted 2 hr, before administration of compounds. Each of Compound 1, 2, 3, 4, 5, 63, 65, and 67 was orally administered at the dose of 20 mg/kg, 10 ul/g, bw (n=3˜5/group). All compounds were dissolved in a vehicle of 30% (v/v) PEG 400 or 20% (v/v) Tween 80. The control group was treated the vehicle without compounds.
One hour after the administration of Compounds, 0.6% acetic acid at the dose of 10 ul/g, bw was injected into the mice. Animals were habituated in the cage for 5 min 5 min after habituation, the number of writhes (abdominal constriction) for 15 min was counted referring to Korzeniewska-Rybicka, I. et al. (1998) and compared with that of a control.
(In writhing tests, fewer writhes than in controls are read as antinociception.)

The next assay deals with SNL model in rats. Description: Antiallodynic activity on Chung model (SNL, spinal nerve ligation), von Frey. Type of assay: in vivo, Sprague-Dawley rats. Particulars: Rattus norvegicus, po, 1 h. The protocol: Male Sprague-Dawley rats (200-220 g, Orient Bio, Korea) were habituated for 1 week before the experiment and allowed free access to food and water throughout the experimentation. Room temperature and humidity were maintained at 24±2° C. and 50±10%, respectively. Neuropathic surgery (SNL, Spinal nerve ligation) model was done as described in Kim and Chung (1992). Briefly, animal under gaseous anesthesia with isoflurane a 4:4 flow ratio of NO2. The left lumber spinal nerve L5 and L6 were isolated and tightly ligated with 4˜0 silk thread. The wound was treated with a gentamicin antibiotics solution (4 mg/kg, 4 ul/g, bw), and the wound muscle was closed with cat cut chrome 4/0 thread and skin was closed dafilon 4/0 tread. Sham controls were prepared in the same manner as the spinal nerves were exposed, but no ligated L5 and L6 nerves. But, vehicle controls were identical to SNL model, except for administration of vehicles.
Tactile sensitivity (Mechanical allodynia) was evaluated using von Frey monofilaments before and after treatment and animals were used withdrawal threshold value was less than 4 g. […] The tactile sensitivity for ipsilateral hind paw was measured using the up-and-down method (Dixon, 1980) with seven von Frey monofilaments (0.4, 1, 2, 4, 6, 8, and 15 g) to 3 trials. […] The 50% paw withdrawal threshold for each paw was calculated using the following formula: [Xth] log=[vFr] log+ky where [vFr] is the force of the last von Frey used, k=0.2249 which is the average interval (in log units) between the von Frey monofilaments, and y is a value that depends upon the pattern of withdrawal responses (Dixon, 1980).
All animals were fasted 18 h before the administration of the compounds. Antiallodynic effect of compounds of Examples 1, 63 and 65 were evaluated at the dose of 5, 10 and 30 mg/kg (n=5˜6), orally administrated in a volume of 5 ul/g, bw in a vehicle of 30% (v/v) PEG 400 (Examples 1 and 63) or 20% (v/v) Tween 80 (Example 65). […]

Assay [3] concerns CFA-induced pain model in rats. Kind of assay: Antiallodynic activity on Complete Freund's Adjuvant (CFA)-induced inflammatory pain model, von Frey. Type of assay: in vivo, Sprague-Dawley rats. The following applies: 0.5 hr, paw withdrawal threshold relative to sham. The protocol:
Male, Sprague-Dawley rats (200-220 g, Nara Bio, Korea) were habituated for 1 week before surgery and allowed free access to food and water throughout the experimentation. Room temperature and humidity were maintained at 24±2° C. and 50±10%, respectively.
CFA-induced inflammatory pain was induced by the procedure of Nagakura et al. (2003) and Gregory P. et al. (2010) with minor modifications. CFA (sigma, USA) was injected in the right plantar with a 100 ul volume under gaseous anesthesia with isoflurane a 4:4 flow ratio of NO2. Sham controls were injected with 100 ul of saline and vehicle controls were identical to CFA infusion model, except for administration of vehicles.
Tactile sensitivity (Mechanical allodynia) was evaluated using von Frey monofilaments before and after treatment, and animals were used withdrawal threshold value was less than 4 g. One week after surgery, CFA-infused animals (n=4˜6), sham-operated animals (n=12), and vehicle-operated animals (n=17) were tested for tactile sensitivity with von Frey monofilaments 3 trials in each animal. All Animals were placed in a stainless steel mashed chamber and habituated for 30 min in the test box. The tactile sensitivity for ipsilateral hind paw was measured using the up-and-down method (Dixon, 1980) with seven von Frey monofilaments (0.4, 1, 2, 4, 6, 8, and 15 g) to 3 trials. […] The 50% paw withdrawal threshold for each paw was calculated using the following formula: [Xth] log=[vFr] log+ky where [vFr] is the force of the last von Frey used, k=0.2249 which is the average interval (in log units) between the von Frey monofilaments, and y is a value that depends upon the pattern of withdrawal responses (Dixon, 1980).
Antiallodynic effect of compound of Example 1 was evaluated at the dose of 10, 30 and 60 mg/kg (n=4˜6), intraperitoneally administrated in a volume of 5 ul/g bw in a vehicle of 30% (v/v) PEG. […]
The relative values compared to the sham (% control) were calculated and shown in Table 7 and FIG. 7, which show an antiallodynic effect of Compound 1 on CFA-induced pain model in rats.

As for `C[C@H](OC(N)=O)[C@@H](O)c1ccccc1Cl` [Example 1, 1-(2-chlorophenyl)-(S)-1-hydroxypropyl-(S)-2-carbamate], in the assay on ICR mice [1], the “Hot-plate test (150 mg/kg, 0.5 h, po) % Control” value is 135.7%. The 50% effective dose (ED50) amounted to 14.1 mg/kg in the assay on ICR mice [2] and 11.1 mg/kg with SNL model in rats. Moreover, the entries for the “% Control (CFA-induced pain model)” value in assay [3] (dose 10 mg/kg intraperitoneally), in assay [3] (dose 30 mg/kg intraperitoneally) and in assay [3] (dose 60 mg/kg intraperitoneally) were 12.5%, 40.0% and 73.7%, respectively.
